For one test, the target named is TEAD3 (Homo sapiens, UniProt Q99594). The experiment in a line: TR-FRET (Lipid HTRF) TEAD lipid pocket probe displacement assay, TEAD3. Type of test: binding. To be noted: His-tagged TEAD3, biotinylated lipid pocket probe, 4 hours. (In general: TR-FRET usually uses a lanthanide donor and a delayed reading to cut background.)
The next test deals with TEAD1 (Homo sapiens, UniProt P28347). The experiment in a line: TR-FRET (Lipid HTRF) TEAD lipid pocket probe displacement assay, TEAD1. Type of test: binding. To be noted: His-tagged TEAD1, biotinylated lipid pocket probe, 4 hours.
TEAD1, sequence (P28347 whole entry, species assumed): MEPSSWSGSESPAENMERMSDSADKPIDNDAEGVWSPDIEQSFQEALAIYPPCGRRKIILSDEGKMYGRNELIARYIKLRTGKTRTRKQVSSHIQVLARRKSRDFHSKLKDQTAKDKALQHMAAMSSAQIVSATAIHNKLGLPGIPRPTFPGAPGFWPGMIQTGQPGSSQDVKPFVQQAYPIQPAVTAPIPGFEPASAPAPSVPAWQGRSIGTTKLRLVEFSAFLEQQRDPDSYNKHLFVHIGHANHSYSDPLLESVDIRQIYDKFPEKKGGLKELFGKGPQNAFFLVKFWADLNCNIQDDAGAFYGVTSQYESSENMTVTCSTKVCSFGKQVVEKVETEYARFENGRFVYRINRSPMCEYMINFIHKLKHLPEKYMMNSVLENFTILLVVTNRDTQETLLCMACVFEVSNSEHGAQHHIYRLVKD
The target of the next test is TEAD4 (Homo sapiens, UniProt Q15561). In words: TR-FRET (Lipid HTRF) TEAD lipid pocket probe displacement assay, TEAD4. Type of test: binding. Particulars: His-tagged TEAD4, biotinylated lipid pocket probe, 4 hours.
TEAD4, sequence (Q15561 whole entry, species assumed): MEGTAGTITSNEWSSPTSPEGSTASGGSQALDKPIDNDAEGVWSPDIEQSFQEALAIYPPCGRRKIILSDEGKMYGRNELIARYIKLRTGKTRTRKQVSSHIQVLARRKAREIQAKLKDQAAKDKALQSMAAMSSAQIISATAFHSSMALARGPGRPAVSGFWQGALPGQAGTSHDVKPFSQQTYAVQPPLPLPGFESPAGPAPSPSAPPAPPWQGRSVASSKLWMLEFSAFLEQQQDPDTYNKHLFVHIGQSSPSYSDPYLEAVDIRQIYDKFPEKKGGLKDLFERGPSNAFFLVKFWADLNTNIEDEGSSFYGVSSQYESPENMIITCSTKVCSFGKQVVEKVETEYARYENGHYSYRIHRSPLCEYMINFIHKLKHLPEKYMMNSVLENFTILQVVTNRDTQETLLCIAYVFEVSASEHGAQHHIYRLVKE
For another test, the target named is TEAD2 (Homo sapiens, UniProt Q15562). In words: biochemical.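 Further: TR-FRET competition assay with His-tagged TEAD protein and a biotinylated lipid pocket probe, where probe displacement by compound lowers the signal.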
TEAD2, sequence (Q15562 whole entry, species assumed): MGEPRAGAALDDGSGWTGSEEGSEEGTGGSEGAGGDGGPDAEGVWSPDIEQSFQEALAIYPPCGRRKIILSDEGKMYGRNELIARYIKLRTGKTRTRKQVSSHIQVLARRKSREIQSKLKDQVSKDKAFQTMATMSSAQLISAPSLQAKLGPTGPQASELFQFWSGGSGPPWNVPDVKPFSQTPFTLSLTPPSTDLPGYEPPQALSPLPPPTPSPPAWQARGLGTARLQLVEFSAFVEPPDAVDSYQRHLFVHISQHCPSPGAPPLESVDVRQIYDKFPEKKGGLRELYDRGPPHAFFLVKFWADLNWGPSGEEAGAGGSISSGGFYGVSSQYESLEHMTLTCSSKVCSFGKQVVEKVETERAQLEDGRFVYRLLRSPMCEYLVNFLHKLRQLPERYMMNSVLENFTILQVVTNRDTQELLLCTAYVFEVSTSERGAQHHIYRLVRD

SMILES strings stand for the structures.

TEAD3, sequence (Q99594 whole entry, species assumed): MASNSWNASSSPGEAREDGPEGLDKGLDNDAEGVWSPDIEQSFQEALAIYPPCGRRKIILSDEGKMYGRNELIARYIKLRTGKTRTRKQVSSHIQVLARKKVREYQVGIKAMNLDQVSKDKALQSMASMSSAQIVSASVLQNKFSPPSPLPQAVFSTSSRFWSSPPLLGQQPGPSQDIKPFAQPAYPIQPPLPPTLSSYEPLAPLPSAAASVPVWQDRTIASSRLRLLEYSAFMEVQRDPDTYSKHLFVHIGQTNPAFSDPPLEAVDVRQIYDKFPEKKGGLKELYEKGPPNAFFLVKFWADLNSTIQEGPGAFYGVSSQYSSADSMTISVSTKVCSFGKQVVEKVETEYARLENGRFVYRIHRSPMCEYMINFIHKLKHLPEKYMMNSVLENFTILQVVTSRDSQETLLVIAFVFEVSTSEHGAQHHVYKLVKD
Procedure for TEAD2: (§1) His-tagged TEAD proteins are pre-incubated with TEAD project compounds for 30 minutes or 4 hours at room temperature. Biotinylated lipid pocket probes are then added to the TEAD/Compound mixture and incubated for 60 minutes at room temperature. The lipid pocket probe competes with the test compound for the TEAD lipid pocket until equilibrium is reached. After 60 minutes, Europium labelled anti-His (Perkin Elmer #AD0110) and XL665 labelled streptavidin (CIS Bio 610SAXAC) are added to the TEAD/test compound/lipid pocket mixture and incubated for 30 minutes or 4 hours. TR-FRET values are then measured using an EnVision multi-label plate reader (Perkin Elmer Cat #2104-001 0A.) If the lipid pocket probe binds to TEAD as expected, a TR-FRET signal results from the proximity of anti-His Eu and XL665. If a TEAD lipid pocket binder such as binds and displaces the lipid pocket probe, the disruption of the TEAD:probe interaction results in a decrease in TR-FRET signal. The potency of compounds as TEAD lipid pocket binders is determined by IC50 value generated using a non-linear 4 parameter curve fit.
Procedure for TEAD3: as §1

A word on the IC50: it is the concentration needed to halve the response being measured. Take `C#Cc1ccc(-c2cc(CN(C)C(=O)C=C)c(CO)c3c2OCC3)cc1` [Compound 94, N-((7-(4-Ethynylphenyl)-4-(hydroxymethyl)-2,3-dihydrobenzofuran-5-yl)methyl)-N-methylacrylamide]: the IC50 is 56 nM at TEAD3, 44 nM at TEAD1, 13 nM at TEAD4 and 67 nM against TEAD2.
Consider `C=CC(=O)NCc1cc(-c2ccc(OC(F)(F)F)cc2)c2c(c1[C@H](O)[C@H](C)O)CCO2` (single isomer, unassigned) [Compound 89], for which the IC50 on TEAD3 amounted to 4800 nM; on TEAD1, 160 nM; at TEAD4 it was 150 nM; at TEAD2 it was 34 nM.
For `O=C(NCc1cc(-c2ccc(OC(F)(F)F)cc2)c2nccnc2c1[C@@H](O)CO)C1=CCC1` [Compound 81, (R)-N-((5-(1,2-Dihydroxyethyl)-8-(4-(trifluoromethoxy)phenyl)quinoxalin-6-yl)methyl)cyclobut-1-ene-1-carboxamide], in that order: 220 nM, 31 nM, 13 nM and 21 nM.
The like results for `Cn1cnc2c(-c3ccc(OC(F)(F)F)cc3)cn(C3CN(C(=O)/C=C/CO)C3)c(=O)c21` [Compound 137, (E)-5-(1-(4-Hydroxybut-2-enoyl)azetidin-3-yl)-3-methyl-7-(4-(trifluoromethoxy)phenyl)-3,5-dihydro-4H-imidazo[4,5-c]pyridin-4-one] were, in that order, 95 nM, 75 nM, 14 nM and 94 nM.
The like results for `C=C1CCN(Cc2nc(-c3ccc(OC(F)(F)F)cc3)c3ncn(C)c3n2)C1=O` [Compound 129, 1-((9-Methyl-6-(4-(trifluoromethoxy)phenyl)-9H-purin-2-yl)methyl)-3-methylenepyrrolidin-2-one] were, in that order, 1350 nM, 600 nM, 24.5 nM and 1100 nM.
For `C=C(F)C(=O)N1CC(n2cc(-c3ccc(OC(F)(F)F)cc3)c3nccnc3c2=O)C1` [Compound 134, 6-(1-(2-Fluoroacryloyl)azetidin-3-yl)-8-(4-(trifluoromethoxy)phenyl)pyrido[3,4-b]pyrazin-5(6H)-one], the IC50 at TEAD3 is 310 nM; at TEAD1, 200 nM; on TEAD4, 650 nM; against TEAD2, 1700 nM.
The like results for `C=C(F)C(=O)NCc1cc(-c2ccc(OC(F)(F)F)cc2)c2nccnc2c1[C@@H](O)CO` [Compound 80, (R)-N-((5-(1,2-Dihydroxyethyl)-8-(4-(trifluoromethoxy)phenyl)quinoxalin-6-yl)methyl)-2-fluoroacrylamide] were, in that order, 840 nM, 130 nM, 740 nM and 110 nM.
For `C#Cc1ccc(-c2cc(CNC(=O)C=C)c(CO)c3c2OCC3)cc1` [Compound 93, N-((7-(4-Ethynylphenyl)-4-(hydroxymethyl)-2,3-dihydrobenzofuran-5-yl)methyl)acrylamide], in that order: 1100 nM, 880 nM, 490 nM and 540 nM.
For `O=C(C1=CCC1)N1CC(c2cc(-c3ccc(OC(F)(F)F)cc3)c3nccnc3c2[C@@H](O)CO)C1` [Compound 86, (R)-Cyclobut-1-en-1-yl(3-(5-(1,2-dihydroxyethyl)-8-(4-(trifluoromethoxy)phenyl)quinoxalin-6-yl)azetidin-1-yl)methanone], in that order: 230 nM, 120 nM, 32 nM and 38 nM.
In the case of `C=CC(=O)NCc1cc(-c2ccc(S(F)(F)(F)(F)F)cc2)c2c(c1[C@H](O)CO)CCO2` (stereo in doubt) [Compound 96, N-[[7-[4-(Pentafluoro-6-sulfanyl)phenyl]-4-[rac-(1R)-l,2-dihydroxyethyl]-2,3-dihydrobenzofuran-5-yl]methyl]prop-2-enamide], the IC50 on TEAD3 was 72 nM; at TEAD1, 43 nM; at TEAD4, 23 nM; at TEAD2, 33 nM.
Consider `C=CC(=O)NCc1cc(-c2ccc(OC(F)(F)F)cc2)c2ncn(C)c2c1[C@@H](C)O` (single isomer, unassigned) [Compound 138], for which the IC50 is 3600 nM at TEAD3, 60 nM on TEAD1, 92 nM at TEAD4 and 10 nM at TEAD2.
For `C=CC(=O)NC1CN(c2nc(-c3ccc(OC(F)(F)F)cc3)c3ncn(C)c3n2)C1` [Compound 127, N-(1-(9-Methyl-6-(4-(trifluoromethoxy)phenyl)-9H-purin-2-yl)azetidin-3-yl)acrylamide], in that order: 420 nM, 26 nM, 23 nM and 28 nM.
For `C=CC(=O)N(C)Cc1cc(-c2ccc(OC(F)(F)F)cc2)c2ncccc2c1[C@@H](O)CO` (single isomer, unassigned) [Compound 52], in that order: 79 nM, 25 nM, 43 nM and 46 nM.
As for `C=CC(=O)NCc1cc(-c2ccc(OC(F)(F)F)cc2)c2cccnc2c1C` [Compound 43, N-[[8-methyl-5-[4-(trifluoromethoxy)phenyl]-7-quinolyl]methyl]prop-2-enamide], the IC50 on TEAD3 was 22 nM; at TEAD1 it was 10 nM; at TEAD4, 16 nM; at TEAD2 it was 9.8 nM.
The like results for `C=C(F)C(=O)N1CC(c2cc(-c3ccc(OC(F)(F)F)cc3)c3ncn(C)c3c2)C1` [Compound 145, 2-Fluoro-1-(3-(1-methyl-4-(4-(trifluoromethoxy)phenyl)-1H-benzo[d]imidazol-6-yl)azetidin-1-yl)prop-2-en-1-one] were, in that order, 240 nM, 6.9 nM, 12 nM and 19 nM.
For `C=CC(=O)NCc1cc(-c2ccc(OC(F)(F)F)cc2F)c2ncn(C)c2c1C#N` [Compound 143, N-((7-Cyano-4-(2-fluoro-4-(trifluoromethoxy)phenyl)-1-methyl-1H-benzo[d]imidazol-6-yl)methyl)acrylamide], in that order: 69 nM, 26 nM, 9.5 nM and 22 nM.
For `C=CC(=O)N(C)Cc1cc(-c2ccc(OC(F)(F)F)cc2)c2c(c1C#N)CCO2` [Compound 95, N-((4-cyano-7-(4-(trifluoromethoxy)phenyl)-2,3-dihydrobenzofuran-5-yl)methyl)-N-methylacrylamide], in that order: 9.5 nM, 8.6 nM, 3.8 nM and 8.8 nM.
On to `C=CC(=O)NCc1nc(-c2ccc(OC(F)(F)F)cc2)c2ccccc2n1` [Compound 7, N-((4-(4-(trifluoromethoxy)phenyl)quinazolin-2-yl)methyl)acrylamide], for which the IC50 is 230 nM on TEAD3, 18 nM on TEAD1, 40 nM on TEAD4 and 640 nM against TEAD2.
